Measurements as given in ChEMBL document CHEMBL1649268, “Comparative in vitro activity profile of oritavancin against recent gram-positive clinical isolates” (2009).

Tested on: Enterococcus faecium
Assay: Antimicrobial activity against Enterococcus faecium expressing VanA gene clinical isolates assessed as resistant isolates by broth microdilution method
Type: functional

C[C@H]1COc2c(N3CCN(C)CC3)c(F)cc3c(=O)c(C(=O)O)cn1c23.C[C@H]1COc2c(N3CCN(C)CC3)c(F)cc3c(=O)c(C(=O)O)cn1c23.O [LEVOFLOXACIN]
Activity: 99.8%
